Laboratory results: ChEMBL document CHEMBL1201862, “PubChem BioAssay data set” (2004)
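Grown in 96-well plates, cells were treated for 48 hours with each compound at five concentrations. Insufficient inhibition: endpoint recorded as highest concentration tested. At the GI50, growth is halved.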 Active and inactive are the calls of the source. Cut-off read from the data, not from the text of the source: active = GI50 up to about 1.1 µM and inactive = higher.

How the values were obtained:
Assay in all cases: NCI-60 cell line screen, 48 h
NCI/ADR-RES = tested on: NCI/ADR-RES
SF-295 = tested on: SF-295
NCI-H226 = tested on: NCI-H226
COLO 205 = tested on: COLO 205
PC-3 = tested on: PC-3
U-251 = tested on: U-251
EKVX = tested on: EKVX
HCT-15 = tested on: HCT-15
K562 = tested on: K562
SK-MEL-2 = tested on: SK-MEL-2
MDA-MB-435 = tested on: MDA-MB-435
MDA-MB-231 = tested on: MDA-MB-231
MDA-N = tested on: MDA-N
SK-OV-3 = tested on: SK-OV-3
ACHN = tested on: ACHN
BT-549 = tested on: BT-549
786-0 = tested on: 786-0
OVCAR-5 = tested on: OVCAR-5
TK-10 = tested on: TK-10
UO-31 = tested on: UO-31
KM12 = tested on: KM12
SF-539 = tested on: SF-539
UACC-257 = tested on: UACC-257
A498 = tested on: A498
RXF 393 = tested on: RXF 393
Malme-3M = tested on: Malme-3M
DU-145 = tested on: DU-145
SNB-19 = tested on: SNB-19
NCI-H23 = tested on: NCI-H23
OVCAR-3 = tested on: OVCAR-3
M14 = tested on: M14
OVCAR-8 = tested on: OVCAR-8
IGROV-1 = tested on: IGROV-1
OVCAR-4 = tested on: OVCAR-4
HCT-116 = tested on: HCT-116
SNB-75 = tested on: SNB-75
MCF7 = tested on: MCF7
HCC 2998 = tested on: HCC 2998
SR = tested on: SR
MOLT-4 = tested on: MOLT-4
A549 = tested on: A549
SK-MEL-5 = tested on: SK-MEL-5
NCI-H522 = tested on: NCI-H522
SF-268 = tested on: SF-268
CCRF-CEM = tested on: CCRF-CEM
HOP-62 = tested on: HOP-62
SN12C = tested on: SN12C
NCI-H460 = tested on: NCI-H460
CAKI-1 = tested on: CAKI-1
HT-29 = tested on: HT-29
T47D = tested on: T47D
UACC-62 = tested on: UACC-62
HOP-92 = tested on: HOP-92
HL-60 = tested on: HL-60
SW-620 = tested on: SW-620
LOX IMVI = tested on: LOX IMVI
SK-MEL-28 = tested on: SK-MEL-28
RPMI-8226 = tested on: RPMI-8226
Hs-578T = tested on: Hs-578T

Structure (SMILES): O=C(/C=C1/Nc2ccc([N+](=O)[O-])cc2N/C1=C/C(=O)c1ccccc1)c1ccccc1
- GI50 (NCI/ADR-RES): 18.3 µM (inactive)
- GI50 (SF-295): 15 µM (inactive)
- GI50 (NCI-H226): 23.4 µM (inactive)
- GI50 (COLO 205): 53.6 µM (inactive)
- GI50 (PC-3): 43.7 µM (inactive)
- GI50 (U-251): 13.5 µM (inactive)
- GI50 (EKVX): 30.8 µM (inactive)
- GI50 (HCT-15): 11.5 µM
- GI50 (K562): 32.8 µM (inactive)
- GI50 (SK-MEL-2): 0.385 µM (active)
- GI50 (MDA-MB-435): > 100 µM (inactive)
- GI50 (MDA-MB-231): 16.6 µM (inactive)
- GI50 (MDA-N): > 100 µM (inactive)
- GI50 (SK-OV-3): 23 µM (inactive)
- GI50 (ACHN): 39.8 µM (inactive)
- GI50 (BT-549): 18.5 µM (inactive)
- GI50 (786-0): 18.3 µM (inactive)
- GI50 (OVCAR-5): > 100 µM (inactive)
- GI50 (TK-10): 24.9 µM (inactive)
- GI50 (UO-31): 18.6 µM (inactive)
- GI50 (KM12): 59.4 µM (inactive)
- GI50 (SF-539): 8.2 µM (inactive)
- GI50 (UACC-257): > 100 µM (inactive)
- GI50 (A498): 21.4 µM (inactive)
- GI50 (RXF 393): 14.3 µM (inactive)
- GI50 (Malme-3M): 40.8 µM (inactive)
- GI50 (DU-145): 43.7 µM (inactive)
- GI50 (SNB-19): 21.6 µM (inactive)
- GI50 (NCI-H23): 12.4 µM (inactive)
- GI50 (OVCAR-3): 16.7 µM (inactive)
- GI50 (M14): 86.9 µM (inactive)
- GI50 (OVCAR-8): 16.8 µM (inactive)
- GI50 (IGROV-1): 25.3 µM (inactive)
- GI50 (OVCAR-4): 5.6 µM (inactive)
- GI50 (HCT-116): 20.7 µM (inactive)
- GI50 (SNB-75): 16.9 µM (inactive)
- GI50 (MCF7): 21 µM (inactive)
- GI50 (HCC 2998): 55.8 µM (inactive)
- GI50 (SR): 27.5 µM (inactive)
- GI50 (MOLT-4): 22.5 µM (inactive)
- GI50 (A549): 36.3 µM (inactive)
- GI50 (SK-MEL-5): 38 µM (inactive)
- GI50 (NCI-H522): 13.3 µM (inactive)
- GI50 (SF-268): 15.2 µM (inactive)
- GI50 (CCRF-CEM): 10.6 µM (inactive)
- GI50 (HOP-62): 12.1 µM (inactive)
- GI50 (SN12C): 40.8 µM (inactive)
- GI50 (NCI-H460): 13.7 µM (inactive)
- GI50 (CAKI-1): 26.7 µM (inactive)
- GI50 (HT-29): 71.1 µM (inactive)
- GI50 (T47D): 18.3 µM (inactive)
- GI50 (UACC-62): 12.6 µM (inactive)

Structure (SMILES): N#CC(C#N)=C/C=C/c1c(Cl)cccc1Cl
- GI50 (NCI/ADR-RES): 1.96 µM (inactive)
- GI50 (SF-295): 2.07 µM (inactive)
- GI50 (NCI-H226): 2.45 µM (inactive)
- GI50 (COLO 205): 1.73 µM (inactive)
- GI50 (PC-3): 1.81 µM (inactive)
- GI50 (U-251): 1.81 µM (inactive)
- GI50 (EKVX): 3.33 µM (inactive)
- GI50 (HOP-92): 2.42 µM (inactive)
- GI50 (HL-60): 0.698 µM (active)
- GI50 (HCT-15): 1.91 µM
- GI50 (K562): 2.55 µM (inactive)
- GI50 (SK-MEL-2): 1.7 µM (inactive)
- GI50 (MDA-MB-435): 2.14 µM (inactive)
- GI50 (MDA-MB-231): 1.85 µM (inactive)
- GI50 (MDA-N): 1.62 µM (inactive)
- GI50 (SK-OV-3): 2.56 µM (inactive)
- GI50 (ACHN): 1.6 µM (inactive)
- GI50 (786-0): 1.71 µM (inactive)
- GI50 (TK-10): 2.7 µM (inactive)
- GI50 (UO-31): 1.84 µM (inactive)
- GI50 (KM12): 1.58 µM (inactive)
- GI50 (SF-539): 1.28 µM (inactive)
- GI50 (UACC-257): 1.58 µM (inactive)
- GI50 (A498): 2.99 µM (inactive)
- GI50 (RXF 393): 1.58 µM (inactive)
- GI50 (SW-620): 1.92 µM (inactive)
- GI50 (Malme-3M): 1.73 µM (inactive)
- GI50 (DU-145): 1.71 µM (inactive)
- GI50 (SNB-19): 3.78 µM (inactive)
- GI50 (NCI-H23): 1.47 µM (inactive)
- GI50 (OVCAR-3): 2.13 µM (inactive)
- GI50 (M14): 1.69 µM (inactive)
- GI50 (OVCAR-8): 1.53 µM (inactive)
- GI50 (IGROV-1): 2.16 µM (inactive)
- GI50 (OVCAR-4): 1.72 µM (inactive)
- GI50 (HCT-116): 1.34 µM (inactive)
- GI50 (SNB-75): 2.84 µM (inactive)
- GI50 (LOX IMVI): 1.73 µM (inactive)
- GI50 (MCF7): 1.94 µM (inactive)
- GI50 (SK-MEL-28): 1.64 µM (inactive)
- GI50 (HCC 2998): 1.84 µM (inactive)
- GI50 (SR): 1.7 µM (inactive)
- GI50 (RPMI-8226): 1.78 µM (inactive)
- GI50 (MOLT-4): 1.88 µM (inactive)
- GI50 (A549): 2.75 µM (inactive)
- GI50 (SK-MEL-5): 1.85 µM (inactive)
- GI50 (NCI-H522): 1.65 µM (inactive)
- GI50 (Hs-578T): 1.97 µM (inactive)
- GI50 (SF-268): 1.92 µM (inactive)
- GI50 (CCRF-CEM): 1.34 µM (inactive)
- GI50 (HOP-62): 2.74 µM (inactive)
- GI50 (SN12C): 1.8 µM (inactive)
- GI50 (NCI-H460): 1.87 µM (inactive)
- GI50 (CAKI-1): 1.93 µM (inactive)
- GI50 (HT-29): 1.7 µM (inactive)
- GI50 (T47D): 2.24 µM (inactive)
- GI50 (UACC-62): 1.5 µM (inactive)

Structure (SMILES): C=CC1CN(C(=O)OCC)N(C(=O)OCC)C1CCc1ccccc1 (configuration not stated)
- GI50 (NCI/ADR-RES): 85.1 µM (inactive)
- GI50 (SF-295): 58.6 µM (inactive)
- GI50 (NCI-H226): > 100 µM (inactive)
- GI50 (COLO 205): 71.6 µM (inactive)
- GI50 (PC-3): 79.1 µM (inactive)
- GI50 (U-251): > 100 µM (inactive)
- GI50 (EKVX): 72.4 µM (inactive)
- GI50 (HOP-92): 53.5 µM (inactive)
- GI50 (HL-60): 35.6 µM (inactive)
- GI50 (HCT-15): 65.5 µM
- GI50 (K562): 50.8 µM (inactive)
- GI50 (SK-MEL-2): > 100 µM (inactive)
- GI50 (MDA-MB-435): > 100 µM (inactive)
- GI50 (MDA-MB-231): > 100 µM (inactive)
- GI50 (MDA-N): > 100 µM (inactive)
- GI50 (SK-OV-3): > 100 µM (inactive)
- GI50 (ACHN): > 100 µM (inactive)
- GI50 (786-0): > 100 µM (inactive)
- GI50 (OVCAR-5): > 100 µM (inactive)
- GI50 (TK-10): > 100 µM (inactive)
- GI50 (UO-31): 74.1 µM (inactive)
- GI50 (KM12): 71.6 µM (inactive)
- GI50 (UACC-257): > 100 µM (inactive)
- GI50 (Malme-3M): > 100 µM (inactive)
- GI50 (DU-145): > 100 µM (inactive)
- GI50 (SNB-19): > 100 µM (inactive)
- GI50 (NCI-H23): 61.9 µM (inactive)
- GI50 (M14): > 100 µM (inactive)
- GI50 (OVCAR-8): > 100 µM (inactive)
- GI50 (IGROV-1): 81.8 µM (inactive)
- GI50 (OVCAR-4): 57.4 µM (inactive)
- GI50 (HCT-116): 67.1 µM (inactive)
- GI50 (SNB-75): 68.9 µM (inactive)
- GI50 (LOX IMVI): > 100 µM (inactive)
- GI50 (MCF7): 42.2 µM (inactive)
- GI50 (SK-MEL-28): > 100 µM (inactive)
- GI50 (HCC 2998): > 100 µM (inactive)
- GI50 (SR): 65.9 µM (inactive)
- GI50 (RPMI-8226): 30.9 µM (inactive)
- GI50 (MOLT-4): 31.2 µM (inactive)
- GI50 (A549): 57.8 µM (inactive)
- GI50 (SK-MEL-5): 64.1 µM (inactive)
- GI50 (NCI-H522): 39.3 µM (inactive)
- GI50 (Hs-578T): > 100 µM (inactive)
- GI50 (SF-268): > 100 µM (inactive)
- GI50 (CCRF-CEM): 72.4 µM (inactive)
- GI50 (HOP-62): > 100 µM (inactive)
- GI50 (SN12C): > 100 µM (inactive)
- GI50 (NCI-H460): 74.1 µM (inactive)
- GI50 (CAKI-1): > 100 µM (inactive)
- GI50 (HT-29): > 100 µM (inactive)
- GI50 (T47D): 33.3 µM (inactive)
- GI50 (UACC-62): > 100 µM (inactive)
